From ChEMBL document CHEMBL4706587 (Eur J Med Chem, 2020) come the findings set out here.

The nature of data set [1]: Cmax in Wistar rat at 3 mg/kg, po measured up to 240 mins. Format: ADME, organism-based. Also on record: route oral, dose 3 mg/kg, time <=240. As to conditions: in vivo.
Data set [2] is described as follows: Cytotoxicity against mouse C8D1A astrocytes upto 25 uM by LDH assay. The settings on record: astrocyte.
The target of data set [3] is T1, Amine oxidase [flavin-containing] A (Homo sapiens, UniProt P21397).
T1 sequence (P21397 whole entry): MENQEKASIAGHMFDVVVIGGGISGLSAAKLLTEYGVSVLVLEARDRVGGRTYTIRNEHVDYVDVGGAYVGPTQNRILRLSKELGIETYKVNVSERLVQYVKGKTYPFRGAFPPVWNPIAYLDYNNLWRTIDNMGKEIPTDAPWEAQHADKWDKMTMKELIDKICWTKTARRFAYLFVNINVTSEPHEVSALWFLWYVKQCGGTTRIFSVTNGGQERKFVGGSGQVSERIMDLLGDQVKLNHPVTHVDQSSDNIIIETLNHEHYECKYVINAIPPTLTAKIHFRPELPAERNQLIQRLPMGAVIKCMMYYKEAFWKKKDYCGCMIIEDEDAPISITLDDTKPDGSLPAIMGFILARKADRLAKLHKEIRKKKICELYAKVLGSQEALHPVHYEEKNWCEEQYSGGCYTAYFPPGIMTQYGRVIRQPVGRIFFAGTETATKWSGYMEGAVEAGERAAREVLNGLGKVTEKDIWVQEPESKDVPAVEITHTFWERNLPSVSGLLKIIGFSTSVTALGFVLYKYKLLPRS
Description: Inhibition of recombinant human MAO-A expressed in baculovirus infected BTI insect cells using p-tyramine as substrate preincubated for 30 mins followed by substrate addition and measured after 1 hr by fluorimetric analysis.

A further data set has as its target beta1 adrenoceptor (Homo sapiens, UniProt P08588). In words: Displacement of [3H](-)CGP 12177 from human recombinant beta1 adrenoceptor at 1 uM after 60 mins by radiometric scintillation analysis relative to control. The settings on record: probe [3H](-)CGP 12177.
Another data set deals with T2, muscarinic M1 receptor (Homo sapiens, UniProt P11229).
T2 sequence (P11229 whole entry): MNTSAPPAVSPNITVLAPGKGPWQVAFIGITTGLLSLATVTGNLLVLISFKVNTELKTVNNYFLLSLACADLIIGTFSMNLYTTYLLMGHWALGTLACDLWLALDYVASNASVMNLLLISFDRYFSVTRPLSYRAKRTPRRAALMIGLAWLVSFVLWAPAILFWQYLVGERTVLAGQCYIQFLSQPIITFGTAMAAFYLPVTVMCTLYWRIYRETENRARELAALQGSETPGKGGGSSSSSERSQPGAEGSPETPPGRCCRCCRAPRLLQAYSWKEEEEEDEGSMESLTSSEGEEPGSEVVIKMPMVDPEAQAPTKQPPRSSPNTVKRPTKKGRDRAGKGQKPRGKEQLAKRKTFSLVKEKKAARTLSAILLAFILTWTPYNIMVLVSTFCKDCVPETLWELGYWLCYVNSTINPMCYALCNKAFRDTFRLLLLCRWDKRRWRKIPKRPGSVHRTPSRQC
In words: Displacement of [3H]pirenzepine from human recombinant muscarinic M1 receptor at 1 uM after 60 mins by radiometric scintillation analysis relative to control. As to conditions: probe [3H]pirenzepine. For orientation: Displacement assays read how much labelled ligand stays bound in the presence of the test substance.

The next data set has as its target histamine H1 receptor (Homo sapiens, UniProt P35367). Description: Displacement of [3H]pyrilamine from human recombinant histamine H1 receptor at 1 uM after 60 mins by radiometric scintillation analysis relative to control. As to conditions: probe [3H]pyrilamine.
In data set [4] the target is T3, 5-hydroxytryptamine receptor 1A (Homo sapiens, UniProt P08908).
T3 sequence (P08908 whole entry): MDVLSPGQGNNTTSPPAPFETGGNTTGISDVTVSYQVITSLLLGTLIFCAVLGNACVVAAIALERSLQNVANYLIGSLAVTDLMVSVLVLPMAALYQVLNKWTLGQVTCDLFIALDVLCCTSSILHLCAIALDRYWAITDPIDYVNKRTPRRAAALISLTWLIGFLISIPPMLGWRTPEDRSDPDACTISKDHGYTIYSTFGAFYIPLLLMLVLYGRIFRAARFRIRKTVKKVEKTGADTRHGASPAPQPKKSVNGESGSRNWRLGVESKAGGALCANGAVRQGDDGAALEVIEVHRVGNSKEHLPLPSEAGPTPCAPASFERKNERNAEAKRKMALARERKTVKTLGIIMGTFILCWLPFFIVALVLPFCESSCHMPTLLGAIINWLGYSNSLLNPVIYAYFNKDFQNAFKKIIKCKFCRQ
In words: Displacement of [3H]8-OH-DPAT from human 5HT1A receptor expressed in HEK293 cells incubated at room temperature for 1 hr by microbeta plate reader analysis. The format is cell-based.

A short description of data set [5]: Effective permeability of compound in PBS at pH 7.4 at 100 uM incubated for 5 hrs by PAMPA-BBB based UPLC-MS analysis. The format is ADME. As to conditions: read-out: Peff.
In data set [6] the target is T4, Amine oxidase [flavin-containing] B (Homo sapiens, UniProt P27338).
T4 sequence (P27338 whole entry): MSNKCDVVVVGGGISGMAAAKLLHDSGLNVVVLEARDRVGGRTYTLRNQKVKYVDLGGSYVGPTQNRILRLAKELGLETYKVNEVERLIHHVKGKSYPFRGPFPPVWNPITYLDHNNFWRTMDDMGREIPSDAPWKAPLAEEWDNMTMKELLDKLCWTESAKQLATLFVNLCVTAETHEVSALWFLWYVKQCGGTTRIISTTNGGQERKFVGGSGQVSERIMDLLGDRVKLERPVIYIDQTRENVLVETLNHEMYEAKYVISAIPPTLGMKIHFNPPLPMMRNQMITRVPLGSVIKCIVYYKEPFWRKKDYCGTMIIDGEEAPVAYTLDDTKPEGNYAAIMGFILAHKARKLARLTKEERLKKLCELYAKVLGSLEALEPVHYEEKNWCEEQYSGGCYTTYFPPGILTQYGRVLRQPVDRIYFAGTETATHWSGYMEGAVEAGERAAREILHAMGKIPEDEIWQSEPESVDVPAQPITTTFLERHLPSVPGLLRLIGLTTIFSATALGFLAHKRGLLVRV
The settings on record: BTI, 1 h, read-out: INH.
Description: Inhibition of recombinant human MAO-B expressed in baculovirus infected BTI insect cells at 1 uM using p-tyramine as substrate preincubated for 30 mins followed by substrate addition and measured after 1 hr by fluorimetric analysis relative to control

A short description of data set [7]: Metabolic stability in rat liver microsomes assessed as intrinsic clearance at 10 uM incubated for 10 mins followed by NADPH regeneration system addition and measured after 60 mins by UPLC-MS analysis. Format: ADME, Microsome. As to conditions: time 70 min, read-out: CLH.
The nature of data set [8]: Tmax in Wistar rat at 3 mg/kg, po measured up to 240 mins. Format: ADME, organism-based. As to conditions: in vivo.
The nature of data set [9]: Cytotoxicity against mouse C8D1A astrocytes upto 25 uM by MTT assay. As to conditions: astrocyte.
A short description of data set [10]: Half life in Wistar rat at 3 mg/kg, po measured up to 240 mins. As to conditions: in vivo. Format: ADME, organism-based.
For data set [11], the target named is 5-hydroxytryptamine receptor 2A (Homo sapiens, UniProt P28223). Description: Displacement of [3H]-Ketanserin from human 5HT2A receptor expressed in CHOK1 cells incubated at 27 degree C for 1 hr by microbeta plate reader analysis. Format: cell-based, CHO-K1.
Chain of 5-hydroxytryptamine receptor 2A (P28223 whole entry): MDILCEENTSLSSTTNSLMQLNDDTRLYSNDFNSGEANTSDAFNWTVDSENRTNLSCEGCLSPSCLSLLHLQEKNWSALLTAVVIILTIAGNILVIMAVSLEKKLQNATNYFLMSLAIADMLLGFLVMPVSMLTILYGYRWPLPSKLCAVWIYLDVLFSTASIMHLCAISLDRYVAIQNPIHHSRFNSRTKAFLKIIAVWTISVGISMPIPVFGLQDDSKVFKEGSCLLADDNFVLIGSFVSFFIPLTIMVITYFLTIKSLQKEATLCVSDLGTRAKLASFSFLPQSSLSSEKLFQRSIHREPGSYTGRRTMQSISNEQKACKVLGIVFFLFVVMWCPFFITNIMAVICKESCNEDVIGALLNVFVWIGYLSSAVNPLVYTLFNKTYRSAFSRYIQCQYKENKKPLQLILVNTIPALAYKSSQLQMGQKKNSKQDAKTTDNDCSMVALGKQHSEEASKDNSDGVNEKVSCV
Data set [12] deals with T5, adrenergic alpha1A receptor (Homo sapiens, UniProt P35348).
T5 sequence (P35348 whole entry): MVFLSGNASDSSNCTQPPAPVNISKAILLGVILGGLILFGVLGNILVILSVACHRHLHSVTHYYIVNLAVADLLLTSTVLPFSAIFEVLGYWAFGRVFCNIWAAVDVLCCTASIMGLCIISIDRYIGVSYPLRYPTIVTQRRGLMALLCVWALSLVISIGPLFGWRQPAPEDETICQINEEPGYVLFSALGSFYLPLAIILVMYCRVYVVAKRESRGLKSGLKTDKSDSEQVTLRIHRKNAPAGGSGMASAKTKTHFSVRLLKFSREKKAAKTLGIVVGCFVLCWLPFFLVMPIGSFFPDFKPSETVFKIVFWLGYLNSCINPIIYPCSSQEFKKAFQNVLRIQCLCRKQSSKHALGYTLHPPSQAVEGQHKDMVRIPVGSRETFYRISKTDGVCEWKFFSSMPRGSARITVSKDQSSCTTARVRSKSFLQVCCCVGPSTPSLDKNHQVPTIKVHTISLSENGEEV
Description: Displacement of [3H]-prazosin from human recombinant adrenergic alpha1A receptor at 1 uM incubated for 60 mins by radiometric scintillation analysis relative to control. The settings on record: probe [3H]-prazosin.

For data set [13], the target named is 5-hydroxytryptamine receptor 7 (Homo sapiens, UniProt P34969). Description: Displacement of [3H]-5-CT from human 5HT7 receptor expressed in HEK293 cells measured after 1 hr by microbeta plate reader analysis. Format: cell-based.
Chain of 5-hydroxytryptamine receptor 7 (P34969 whole entry): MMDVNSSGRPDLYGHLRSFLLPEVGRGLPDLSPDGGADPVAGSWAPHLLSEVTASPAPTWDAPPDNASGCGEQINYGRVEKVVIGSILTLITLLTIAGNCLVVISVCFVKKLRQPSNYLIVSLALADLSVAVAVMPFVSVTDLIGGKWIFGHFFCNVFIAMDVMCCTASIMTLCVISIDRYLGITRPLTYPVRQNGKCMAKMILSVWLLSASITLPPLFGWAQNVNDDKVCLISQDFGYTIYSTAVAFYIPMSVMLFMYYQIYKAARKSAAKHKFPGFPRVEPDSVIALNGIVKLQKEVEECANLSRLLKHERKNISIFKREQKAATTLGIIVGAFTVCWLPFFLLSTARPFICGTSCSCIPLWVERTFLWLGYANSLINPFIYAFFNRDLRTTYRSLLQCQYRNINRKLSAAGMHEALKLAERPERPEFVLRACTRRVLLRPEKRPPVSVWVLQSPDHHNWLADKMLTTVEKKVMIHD
The target in the next data set is D(2) dopamine receptor (Homo sapiens, UniProt P14416). Description: Displacement of [3H]-raclopride from human D2 receptor expressed in HEK293 cells measured after 1 hr by microbeta plate reader analysis. Format: cell-based.
Chain of D(2) dopamine receptor (P14416 whole entry): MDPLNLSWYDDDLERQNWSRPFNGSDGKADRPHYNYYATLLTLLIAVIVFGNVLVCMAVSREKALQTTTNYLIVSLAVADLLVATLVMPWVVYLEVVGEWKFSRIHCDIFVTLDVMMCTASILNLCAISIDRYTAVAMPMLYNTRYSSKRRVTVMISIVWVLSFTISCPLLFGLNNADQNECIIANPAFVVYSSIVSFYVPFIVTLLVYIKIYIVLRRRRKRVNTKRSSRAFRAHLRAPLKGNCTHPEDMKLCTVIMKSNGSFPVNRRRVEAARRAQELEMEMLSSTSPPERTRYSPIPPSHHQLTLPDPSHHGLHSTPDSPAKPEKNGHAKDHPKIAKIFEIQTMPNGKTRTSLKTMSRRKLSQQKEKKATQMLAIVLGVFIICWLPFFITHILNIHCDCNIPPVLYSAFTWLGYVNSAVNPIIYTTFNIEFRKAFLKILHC
In data set [14] the target is T4, Amine oxidase [flavin-containing] B. Description: Inhibition of recombinant human MAO-B expressed in baculovirus infected BTI insect cells using p-tyramine as substrate preincubated for 30 mins followed by substrate addition and measured after 1 hr by fluorimetric analysis.

Chain of histamine H1 receptor (P35367 whole entry): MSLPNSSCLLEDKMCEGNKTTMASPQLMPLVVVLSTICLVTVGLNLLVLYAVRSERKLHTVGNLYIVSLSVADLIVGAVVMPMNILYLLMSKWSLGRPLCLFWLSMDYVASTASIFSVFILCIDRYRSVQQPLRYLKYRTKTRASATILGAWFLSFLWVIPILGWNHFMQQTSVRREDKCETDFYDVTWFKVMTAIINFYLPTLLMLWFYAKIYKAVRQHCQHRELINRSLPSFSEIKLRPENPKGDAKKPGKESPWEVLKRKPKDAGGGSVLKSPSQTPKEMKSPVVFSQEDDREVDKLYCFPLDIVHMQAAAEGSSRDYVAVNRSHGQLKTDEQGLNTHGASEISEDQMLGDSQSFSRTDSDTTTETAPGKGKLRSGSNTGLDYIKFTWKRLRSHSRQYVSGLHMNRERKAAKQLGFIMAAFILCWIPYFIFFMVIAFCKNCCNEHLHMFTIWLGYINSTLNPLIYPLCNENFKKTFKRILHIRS
Chain of beta1 adrenoceptor (P08588 whole entry): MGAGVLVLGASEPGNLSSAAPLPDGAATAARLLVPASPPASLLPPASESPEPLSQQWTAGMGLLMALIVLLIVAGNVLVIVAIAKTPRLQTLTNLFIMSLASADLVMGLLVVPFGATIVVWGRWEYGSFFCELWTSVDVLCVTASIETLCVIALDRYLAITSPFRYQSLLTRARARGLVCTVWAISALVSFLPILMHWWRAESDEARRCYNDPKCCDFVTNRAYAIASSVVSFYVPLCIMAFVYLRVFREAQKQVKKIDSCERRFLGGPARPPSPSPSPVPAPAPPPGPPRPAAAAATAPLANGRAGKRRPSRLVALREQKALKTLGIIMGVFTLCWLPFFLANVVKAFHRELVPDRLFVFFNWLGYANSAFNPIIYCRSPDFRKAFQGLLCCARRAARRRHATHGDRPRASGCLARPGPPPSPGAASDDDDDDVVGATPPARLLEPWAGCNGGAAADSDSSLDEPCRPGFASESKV

In general, Cmax refers to the peak of the concentration-time curve. As usually defined, the IC50 is the point on the concentration scale where inhibition reaches its midpoint. As usually defined, the Ki is the equilibrium dissociation constant of an inhibitor or competing ligand from its target. Low values mean tighter binding, high ones weaker binding. As a reminder, the Tmax is the time at which the peak concentration occurs. Broadly, the half-life is the time needed for the level to fall by half in the phase considered. A low value points to fast loss. In data set [1], `C#CCN(C)Cc1ccc(OCCCCCN2CCN(c3cccc4c3ccn4S(=O)(=O)c3ccccc3)CC2)cc1` registered a Cmax of 72.7 ng/mL. The Activity result in data set [2] and in data set [9] was “Non-Toxic” each time. Further, the IC50 in data set [3] amounted to 1040 nM; in data set [14], 154 nM. In addition, the inhibition at 1 h, 1 µM was 5% on beta1 adrenoceptor, 4% at muscarinic M1 receptor, 13% at histamine H1 receptor and 37% in data set [12]. Moreover, the Ki in data set [4] is 684 nM; in [11], 420 nM; in [13], 8000 nM; at D(2) dopamine receptor, 813 nM. The Papp at 5 h, 100 µM in [5] was found to be 4.84 ×10⁻⁶ cm/s. In addition, the inhibition at 1 µM in data set [6] stood at 91%. The CLint scaled at 10 µM in data set [7] was found to be 85 mL/min/kg. Moreover, the time of peak concentration (Tmax) in data set [8] was 0.5 h. This compound also had a half-life in [10] of 28 h.
